pEC50, pIC50: −log10 of the molar value.
Tests used:
[1] = target: intracellular GCN2 (phosphorylation of the GCN2 substrate eIF2α) (Homo sapiens, UniProt Q9P2K8); experiment: GCN2 cellular inhibition assay (AlphaScreen SureFire P-eIF2α Ser51, borrelidin-treated U2OS cells); assay type: cell-based; settings: biomarker assay, phosphorylated eIF2α Ser51 in borrelidin-treated U2OS cells
Procedure, shortened: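 U2OS cells, adhered overnight, received compounds in 4-fold serial dilutions from 40 μM final, then 10 μM borrelidin for 1 h at 37 °C. Lysates were read by AlphaScreen for phospho-eIF2α Ser51; percent inhibition was set against borrelidin-only wells.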

[2] = system: primary human pan T-cells; experiment: Human IL-2 assay for GCN2 inhibition (IL-2 secretion by T cells in low amino acid condition); assay type: cell-based; settings: T-cell; IL-2 secretion from human T cells, anti-CD3/CD28 stimulation, 96 hours; read-out: IL2/T-cell EC50
Description: Tumor microenvironment is profoundly immuno-suppressive. This may be attributed to the depletion of amino acids (like arginine and tryptophan) which triggers the activation of GCN2 in immune cells, including T cell and myeloid cells. In T cells, activation of GCN2 leads to reduce effector functions of CD8 T cells and induction and/or maintenance of immuno-suppressive T-regs. Inhibition of that immuno-suppressive response by GCN2 inhibitors enables an anti-cancer immune response by activating effector T-cells. Herein we describe an in-vitro system we established using human T-cells stimulated in low amino acid condition in order to engage the GCN2 biology. The method described involves the modulation of IL-2 levels secreted by human T cells in responses to the GCN2 inhibitors disclosed herein.
Amino acid-free RPMI was reconstituted with all but one of the amino acids found in standard RMPI (e.g. Arginine, Tryptophan), 10% charcoal-stripped fetal bovine serum, 100 Units/mL penicillin and 0.1 mg/mL streptomycin. Primary human pan T-cells were isolated using Pan T Cell Isolation Kit, human (MACS Miltenyi biotech Cat #Order no. 130-096-535) from apheresis cones and 5×104 pan T-cells per well. The purified T cells are seeded in Nunc™ 96-Well Polystyrene Round Bottom Microwell Plates (the cells are rested in No TRP media in a 15 ml falcon tube in the incubator for 30-45 minutes while titrations for tryptophan and the GCN2 inhibitor compound are made) A plate matrix was developed to titrate both a GCN2 inhibitor and the amino acid of interest ranging from “No Amino Acid” condition, up to the concentration found in the regular RPMI media (20 μM for TRP and 950 μM for Arginine). The cells were incubated for 30 min at 37° C. with the GCN2 inhibitor and then stimulated with 5×104 anti-CD3/CD28 Dynabeads® per well. After 96 hours of incubation the IL-2 level in the supernatant were measured using ELISA (R&D systems Cat #DY202 (Human IL-2 DuoSet ELISA). Data were plotted in GraphPad Prism software and EC50 is calculated.

GCN2 kinase = GCN2 kinase (Homo sapiens, UniProt Q9P2K8); experiment: GCN2 enzyme inhibition assay (Transcreener ADP2 fluorescence polarization); assay type: biochemical; settings: 280 μM ATP, 4 nM GCN2 kinase
Procedure, shortened: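 Run at 25 °C in 25 mM Tris-HCl pH 7.5, 50 mM NaCl, 10 mM MgCl2, 1 mM DTT with 4 nM GCN2, 280 μM ATP and 200 μM (RS)7 peptide; compound (0–8 μM final) preincubated 10 min, reaction 1 h. ADP read by antibody/tracer FP; IC50 and Ki(app) from tight-binding fit.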

Sequence of intracellular GCN2 (phosphorylation of the GCN2 substrate eIF2α) (Q9P2K8 whole entry): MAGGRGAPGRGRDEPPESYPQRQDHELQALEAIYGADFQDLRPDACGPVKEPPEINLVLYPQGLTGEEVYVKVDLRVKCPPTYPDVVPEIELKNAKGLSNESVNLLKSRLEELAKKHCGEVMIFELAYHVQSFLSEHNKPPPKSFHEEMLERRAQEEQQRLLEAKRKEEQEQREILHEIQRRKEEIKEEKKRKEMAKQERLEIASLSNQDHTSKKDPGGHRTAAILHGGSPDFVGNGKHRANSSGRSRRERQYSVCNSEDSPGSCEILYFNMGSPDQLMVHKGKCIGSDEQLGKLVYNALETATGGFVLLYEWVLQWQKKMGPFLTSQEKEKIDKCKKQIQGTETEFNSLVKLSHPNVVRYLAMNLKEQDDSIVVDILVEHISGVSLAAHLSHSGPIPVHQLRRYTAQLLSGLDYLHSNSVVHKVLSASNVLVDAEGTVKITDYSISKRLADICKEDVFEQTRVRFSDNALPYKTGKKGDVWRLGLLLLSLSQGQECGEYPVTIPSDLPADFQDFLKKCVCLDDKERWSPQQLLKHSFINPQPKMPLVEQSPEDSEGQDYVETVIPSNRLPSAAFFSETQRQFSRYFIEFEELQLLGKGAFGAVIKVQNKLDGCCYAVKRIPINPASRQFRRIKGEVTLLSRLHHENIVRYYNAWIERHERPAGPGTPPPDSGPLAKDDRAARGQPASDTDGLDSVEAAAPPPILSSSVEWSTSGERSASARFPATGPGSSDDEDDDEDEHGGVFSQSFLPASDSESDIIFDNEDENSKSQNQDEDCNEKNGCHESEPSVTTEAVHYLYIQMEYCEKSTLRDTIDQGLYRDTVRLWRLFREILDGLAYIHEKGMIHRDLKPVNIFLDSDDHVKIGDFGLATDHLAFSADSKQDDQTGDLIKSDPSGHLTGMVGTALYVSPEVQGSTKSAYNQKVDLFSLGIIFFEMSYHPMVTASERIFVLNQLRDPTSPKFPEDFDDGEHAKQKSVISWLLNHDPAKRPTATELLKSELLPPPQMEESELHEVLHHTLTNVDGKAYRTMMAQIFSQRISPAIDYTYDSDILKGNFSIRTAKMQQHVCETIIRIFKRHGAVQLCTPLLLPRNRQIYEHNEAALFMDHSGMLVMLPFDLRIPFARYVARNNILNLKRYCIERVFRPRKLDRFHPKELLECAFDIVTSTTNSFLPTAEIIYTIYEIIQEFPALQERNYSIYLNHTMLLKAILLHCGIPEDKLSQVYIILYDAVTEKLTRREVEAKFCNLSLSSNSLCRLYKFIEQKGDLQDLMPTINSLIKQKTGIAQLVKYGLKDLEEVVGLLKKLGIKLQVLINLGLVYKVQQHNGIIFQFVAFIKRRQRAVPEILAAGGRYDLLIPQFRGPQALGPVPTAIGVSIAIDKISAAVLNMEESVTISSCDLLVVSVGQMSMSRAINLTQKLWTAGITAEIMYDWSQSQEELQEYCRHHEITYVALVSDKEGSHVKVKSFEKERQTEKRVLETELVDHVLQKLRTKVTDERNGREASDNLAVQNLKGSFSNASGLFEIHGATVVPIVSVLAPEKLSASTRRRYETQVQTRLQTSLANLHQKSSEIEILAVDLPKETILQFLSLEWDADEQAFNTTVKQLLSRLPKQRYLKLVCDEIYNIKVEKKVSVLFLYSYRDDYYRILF
Sequence of GCN2 kinase (Q9P2K8 whole entry): as above

pIC50 ([1]; compounds of Formula II) | pEC50 [2] | pIC50 (GCN2 kinase; compounds of Formula II) | pIC50 ([1]; compounds of Formula IV) | pIC50 (GCN2 kinase; compounds of Formula IV) | SMILES
> 6.30 | > 7.00 | > 8.00 | – | – | C[C@H]1[C@@H](CNS(C)(=O)=O)N(C2CC2)CCN1c1cc(-c2cnc3ccc(C(F)F)nn23)ncn1 [II-752, N-(((2R,3S)-1-cyclopropyl-4-(6-(6-(difluoromethyl)imidazo[12-b]pyridazin-3-yl)pyrimidin-4-yl)-3-methylpiperazin-2-yl)methyl)methanesulfonamide]
– | < 6.30 | – | 5.30 to 6.30 | > 8.00 | Cc1n[nH]cc1[C@H]1C[C@@H](O)CN(c2ccnc(-c3cnc4cnc(C(F)(F)F)cn34)n2)C1 [IV-776, (3R,5R)-5-(3-methyl-1H-pyrazol-4-yl)-1-(2-(6-(trifluoromethyl)imidazo[1,2-a]pyrazin-3-yl)pyrimidin-4-yl)piperidin-3-ol]
